Assay results published in ChEMBL document CHEMBL3244115 (1979).

Columns and labels:
Type in all cases: functional
[1] = test system: B16; experiment: Antitumor activity against mouse B16 cells allografted in ip dosed BDF mouse assessed as 25% increase in life span administered for 9 days
[2] = test system: B16; experiment: Antitumor activity against mouse B16 cells allografted in BDF mouse assessed as increase in life span at 25 mg/kg, ip administered for 9 days relative to untreated control; conditions: route intraperitoneal
[3] = test system: B16; experiment: Antitumor activity against mouse B16 cells allografted in BDF mouse assessed as increase in life span at 100 mg/kg, ip administered for 9 days relative to untreated control; conditions: route intraperitoneal
[4] = test system: B16; experiment: Antitumor activity against mouse B16 cells allografted in BDF mouse assessed as increase in life span at 8 mg/kg, ip administered for 9 days relative to untreated control; conditions: route intraperitoneal
[5] = test system: B16; experiment: Antitumor activity against mouse B16 cells allografted in BDF mouse assessed as increase in life span at 4 mg/kg, ip administered for 9 days relative to untreated control; conditions: route intraperitoneal

| SMILES | log(1/C) [1] | T/C [2] [%] | T/C [3] [%] | T/C [4] [%] | T/C [5] [%] |
| --- | --- | --- | --- | --- | --- |
| NC(=O)Nc1cc(NC(N)=O)cc(N(CCCl)CCCl)c1 | 3.69 | 108 |  |  |  |
| ClCCN(CCCl)c1ccc(/C=C/c2ccccc2)cc1 | 2.86 |  | 101 |  |  |
| O=C(O)CCCc1ccc(N(CCCl)CCCl)cc1 [CHLORAMBUCIL] | 4.7 |  |  | 133 |  |
| NC(Cc1ccc(N(CCCl)CCCl)cc1)C(=O)O (stereo not drawn) [SARCOLYSIN] | 6.18 |  |  |  | 236 |
